Reference: patent US9464092B2, “Transient protection of normal cells during chemotherapy” (G1 Therapeutics, Inc., priority 2013, dated 2016)

Key:
[1] = tested on: RB-intact, Cdk4/6-dependent cell line (WM2664 or tHS68); assay: EdU proliferation, RB-intact Cdk4/6-dependent cell line; conditions: 24 hours
[2] = tested on: Rb phosphorylation at Ser780 and Ser807/811; assay: Rb phosphorylation western blot; format: cell-based; conditions: 300 nM
Description: The Cdk4/6-cyclin D complex is essential for progression from G1 to the S-phase of the DNA cell cycle. This complex phosphorylates the retinoblastoma tumor suppressor protein (Rb). […] Samples were lysed and protein was assayed by western blot analysis. Rb phosphorylation was measured at two sites targeted by the Cdk4/6-cyclin D complex, Ser780 and Ser807/811 using species specific antibodies.

HSPCs (bone marrow) = assay: HSPC proliferation in bone marrow by EdU incorporation after oral gavage; format: in vivo, mice
Description: Mice were then sacrificed at the indicated times (0, 12, 24, 36, or 48 hours following compound administration), and bone marrow was harvested (n=3 mice per time point), as previously described (Johnson et al. J. Clin. Invest. (2010) 120(7), 2528-2536). Four hours before the bone marrow was harvested, mice were treated with 100 μg of EdU by intraperitoneal injection (Invitrogen). Bone marrow mononuclear cells were harvested and immunophenotyped using previously described methods and percent EdU positive cells were then determined (Johnson et al. J. Clin. Invest. (2010) 120(7), 2528-2536). In brief, HSPCs were identified by expression of lineage markers (Lin-), Sca1 (S+), and c-Kit (K+).
Four hours before animals were sacrificed and the bone marrow was harvested, mice were treated with 100 μg of EdU by intraperitoneal injection. Three mice per group were sacrificed at 12 hours and the remaining three animals per group were sacrificed at 24 hours. Results are shown in FIG. 6A as the ratio of EdU positive cells for treated animals at 12 or 24 hour time points compared to control.
Further experiments were completed with Compound T examining dose response and longer periods of compound treatment. […] […].
Both compounds were administered at 150 mg/kg by oral gavage. One hour prior to harvesting bone marrow, EdU was IP injected to label cycling cells. Bone marrow was harvested at 12, 24, 36, and 48 hours after compound treatment and the percentage of EdU positive HSPC cells was determined at each time point.

blood cell counts = assay: 5FU-induced myelosuppression, repeated cycles; format: in vivo, C57Bl/6 mice; conditions: 150 mg/kg oral before 5FU 150 mg/kg i.p., every 21 days for 3 cycles
Text: This was repeated every 21 days for 3 cycles. Blood samples were taken for hematology analysis on Day 10 of Cycles 1-3.

[3] = tested on: telomerized human diploid fibroblasts (tHDFs); assay: γ-H2AX DNA damage assay in tHDF cells with chemotherapy; format: cell-based; conditions: pretreatment before carboplatin, doxorubicin, etoposide, camptothecin or paclitaxel
Description: Cell survival was determined by Cell TiterGlo assay per manufacturer's recommendations. For both γ-H2AX and caspase 3/7 assays, cells were plated and allowed to become adherent for 24 hours. […] For γ-H2AX, cells were harvested for analysis 8 hours after chemotherapy exposure. For the γ-H2AX assay, cells were fixed, permeabilized, and stained with anti-γ-H2AX as per the γ-H2AX Flow Kit (Millipore) and quantitated by flow cytometry. Data was analyzed using FlowJo 2.2 software developed by TreeStar, Inc. For the in vitro caspase 3/7 assay, cells were harvested 24 hours post chemotherapy treatment. Caspase 3/7 activation was measured using the Caspase-Glo® 3/7 Assay System (Promega) per manufacturer's recommendations.

[4] = tested on: 456 (395 non-mutant) kinases; assay: DiscoveRx KINOMEscan kinase profiling; format: binding; conditions: 1000 nM
Description: The compound was screened using a single concentration of 1000 nM (>1000 times the 1050 on Cdk4). Results from this screen confirmed the high potency against Cdk4 and high selectivity versus Cdk2.

[5] = tested on: human renal proximal tubule cells; assay: DNA cell cycle analysis in human renal proximal tubule cells; format: cell-based; conditions: 24 hours, dose dependent
Text: To test the ability of Cdk4/6 inhibitors to induce a clean G1-arrest in non-hematopoietic cells, G1 arrest was examined in human renal proximal tubule cells. […] At the conclusion of the experiment, cells were harvested, fixed, and stained with propidium iodide (a DNA intercalator), which fluoresces strongly red (emission maximum 637 nm) when excited by 488 nm light. Samples were run on Dako Cyan flow cytometer.

[6] = tested on: human renal proximal tubule cells; assay: γ-H2AX assay in renal proximal tubule cells with cisplatin; format: cell-based; conditions: 10 nM-1 uM with 25 uM cisplatin
Description: Normal renal proximal tubule epithelial cells were obtained from American Type Culture Collection (ATCC, Manassas, Va.). Cells were grown in an incubator at 37° C. in a humidified atmosphere of 5% CO2 in Renal Epithelial Cell Basal Media (ATCC) supplemented with Renal Epithelial Cell Growth Kit (ATCC) in 37° C. humidified incubator. […] For the γ-H2AX assay, cells were fixed, permeabilized, and stained with anti-γ-H2AX as per the γ-H2AX Flow Kit (Millipore) and quantitated by flow cytometry. Data was analyzed using FlowJo 2.2 software developed by TreeStar, Inc. Caspase 3/7 activation was measured using the Caspase-Glo 3/7 Assay System (Promega, Madison, Wis.) by following the manufacturer's instructions.

[7] = tested on: WM2664 cells (CDK4/6-dependent cell line); assay: Cell cycle arrest by propidium iodide flow cytometry, WM2664; format: cell-based; conditions: 300 nM, 24 hours
Text: (§1) To test the ability of Cdk4/6 inhibitors to induce a clean G1-arrest, a cell based screening method was used consisting of two Cdk4/6-dependent cell lines (tHS68 and WM2664; Rb-positive) and one Cdk4/6-independent (A2058; Rb-negative) cell line. […] At the conclusion of the experiment, cells were harvested, fixed, and stained with propidium iodide (a DNA intercalator), which fluoresces strongly red (emission maximum 637 nm) when excited by 488 nm light. Samples were run on Dako Cyan flow cytometer and >10,000 events were collected for each sample. Data were analyzed using FlowJo 2.2 software developed by TreeStar, Inc.

[8] = tested on: A2058 cells (CDK4/6-independent cell line); assay: Cell cycle arrest by propidium iodide flow cytometry, A2058; format: cell-based, human; conditions: 300 nM, 24 hours
Text: as §1

[9] = tested on: human renal proximal tubule cells; assay: Cell cycle analysis of renal proximal tubule cells with etoposide or cisplatin; format: cell-based; conditions: 10-1000 nM with etoposide or cisplatin
Description: The ability of Cdk4/6 inhibitors to protect human renal proximal tubule cells from chemotherapy induced DNA damage was analyzed using etoposide and cisplatin. […] At the conclusion of the experiment, cells were harvested, fixed, and stained with propidium iodide (a DNA intercalator), which fluoresces strongly red (emission maximum 637 nm) when excited by 488 nm light. Samples were run on Dako Cyan flow cytometer.

`CN1CCN(c2ccc(Nc3ncc4cc5n(c4n3)C3(CCCCC3)CNC5=O)nc2)CC1` [Compound T] was tested, and the “effect on proliferation (EdU, percent of cells in S-phase)” value [1] was “inhibits the Rb-positive cell line (tHS68)”, the “time post exposure by which Rb phosphorylation is blocked” value ([2]; Rb-dependent cell lines (tHS68, WM2664)) was ≤ 16 h and the “effect on Rb phosphorylation” value ([2]; Rb-independent cells (A2058)) was “no effect”. The “EdU incorporation into HSPCs at 12 and 24 hours compared to control” value (HSPCs (bone marrow); 150 mg/kg oral gavage) was “reduction in EdU incorporation at 12 hours which was starting to return to normal at 24 hours”, the “G1-arrest of bone marrow stem cells (HSPC)” value (HSPCs (bone marrow); oral gavage, mice) was “dose dependent, transient, and reversible G1-arrest” and the “myelosuppression after repeated 5FU cycles” value (blood cell counts) was “reduced the myelosuppression on Day 10 of the third cycle”. For the same compound, the “DNA damage as measured by γ-H2AX formation” value [3] was “attenuated DNA damage”, the “number of 395 non-mutant kinases inhibited” value ([4]; inhibitory threshold of 65%) was 92 and the “percent of 395 non-mutant kinases inhibited” value ([4]; inhibitory threshold of 65%) was 23.3%. The “number of 395 non-mutant kinases inhibited” value ([4]; inhibitory threshold of 90%) was 31, the “percent of 395 non-mutant kinases inhibited” value ([4]; inhibitory threshold of 90%) was 7.8% and the “number of 395 non-mutant kinases inhibited” value ([4]; inhibitory threshold of 99%) was 6. The “percent of 395 non-mutant kinases inhibited” value ([4]; inhibitory threshold of 99%) was 1.5%, the “G1 cell cycle arrest” value [5] was “robust G1 cell cycle arrest” and the “DNA damage as measured by γ-H2AX formation” value [6] was “attenuated DNA damage”. The “effect on S-phase peak” value [7] was “causes a loss of the S-phase peak”, the “effect on S-phase peak” value [8] was “does not cause a loss of the S-phase peak” and the “protection from chemotherapy induced DNA damage (cell cycle distribution)” value [9] was “protects renal proximal tubule epithelial cells from chemotherapy induced DNA damage”.
